Results: patent US8629158B2, “Azabicycloalkane-indole and azabicycloalkane-pyrrolo-pyridine MCH-1 antagonists, methods of making, and use thereof” (Albany Molecular Research, Inc., priority 2009, dated 2014)
Like-named read-outs stand apart in the source and are kept apart here.

Columns and labels:
human MCH-1 receptor = human MCH-1 receptor (Homo sapiens (Human), UniProt Q99705); experiment: Binding Assay for Human Melanin-Concentrating Hormone (MCH-1) Receptor (radioligand displacement, CHO-K1 membranes); conditions: membranes from CHO-K1 cells expressing human MCH1 receptor, [3H]-labeled radioligand, Ki from IC50 by Cheng Prusoff
Chain of human MCH-1 receptor (Q99705 whole entry): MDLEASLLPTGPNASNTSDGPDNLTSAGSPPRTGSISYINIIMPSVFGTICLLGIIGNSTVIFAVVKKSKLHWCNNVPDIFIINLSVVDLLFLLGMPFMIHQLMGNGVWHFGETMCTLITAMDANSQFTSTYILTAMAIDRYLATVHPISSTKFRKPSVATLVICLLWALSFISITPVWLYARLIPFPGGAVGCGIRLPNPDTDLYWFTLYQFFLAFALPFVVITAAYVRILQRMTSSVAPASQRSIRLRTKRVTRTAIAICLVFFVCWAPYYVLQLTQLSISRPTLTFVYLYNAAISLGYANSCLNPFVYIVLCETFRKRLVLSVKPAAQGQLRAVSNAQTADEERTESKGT
Protocol: Evaluation of the affinity of compounds for the human MCH-1 receptor was accomplished using 4-(3,4,5-tritritiumbenzyloxy)-1-(1-(2-(pyrrolidin-1-yl)ethyl)-1H-indazol-5-yl)pyridin-2(1H)-one and membranes prepared from stable CHO-K1 cells expressing the human MCH1 receptor obtained from Euroscreen (Batch 1138). Cell membrane homogenates (8.92 μg protein) were incubated for 60 min at 25° C. with […] of the [^3H]-labeled compound in the absence or presence of the test compound in 50 mM Tris-HCl buffer, pH 7.4. Nonspecific binding was determined in the presence of 50 μM 1-(5-(4-cyanophenyl)bicyclo[3.1.0]hexan-2-yl)-3-(4-fluoro-3-(trifluoromethyl)phenyl)-1-(3-(4-methylpiperazin-1-yl)propyl)urea. Following incubation, the samples were filtered rapidly under vacuum through Skatron 11731 filters, pre-soaked in 0.5% polyethylenimine, and washed with ice-cold 50 mM Tris-HCl buffer, pH 7.4, (wash setting 9,9,0) using a Skatron cell harvester. The filters were counted for radioactivity in a liquid scintillation counter (Tri-Carb 2100TR, Packard) using a scintillation cocktail (Ultima Gold MV, Perkin Elmer).
The results are expressed as a percent inhibition of the control radioligand specific binding. The IC50 value (concentration causing a half-maximal inhibition of control specific binding) and Hill coefficient (nH) were determined by non-linear regression analysis of the competition curve using Hill equation curve fitting. The inhibition constant (Ki) was calculated from the Cheng Prusoff equation: (Ki=IC50/(1+(L/KD)), where L=concentration of radioligand in the assay, and KD=affinity of the radioligand for the receptor.

Cl.O=c1cc(OCc2ccccc2)ccn1-c1ccc2c3c([nH]c2c1)CC1CCC3N1 (single isomer, unassigned; enantiomer b) [Example 20, (−)-4-(Benzyloxy)-1-(5,6,7,8,9,10-hexahydro-7,10-iminocyclohept[b]indol-3-yl)pyridin-2(1H)-one hydrochloride (Enantiomer B)]
Ki (human MCH-1 receptor; MCH-1 Ki (nM)): 9.3 nM | melting point: 211 to 217 °C

Cl.Cn1c2c(c3ccc(-n4ccc(-c5ccc(C(F)(F)F)nc5)cc4=O)cc31)C1CCCC(C2)N1 (centres unmarked) [Example 13, 1-(5-Methyl-6,7,8,9,10,11-hexahydro-7,11-imino-5H-cyclooct[b]indol-3-yl)-4-(6-(trifluoromethyl)pyridin-3-yl)pyridin-2(1H)-one hydrochloride]
Ki (human MCH-1 receptor; read-out: MCH-1 Ki): 46.3 nM | melting point: 265 to 274 °C (dec.)

CN1C2CCCC1c1c(n(C)c3cc(-n4ccc(OCc5ccccc5)cc4=O)ccc13)C2.Cl (centres unmarked) [Example 31, 4-(Benzyloxy)-1-(5,12-dimethyl-6,7,8,9,10,11-hexahydro-7,11-imino-5H-cyclooct[b]indol-3-yl)pyridin-2(1H)-one hydrochloride]
Ki (human MCH-1 receptor; read-out: MCH-1 Ki): 14 nM | melting point: 161 to 180 °C

Cl.O=c1cc(OCc2ccccc2)ccn1-c1ccc2c3c([nH]c2c1)CC1CCC3N1 (centres unmarked) [Example 8, 4-(Benzyloxy)-1-(5,6,7,8,9,10-hexahydro-7,10-iminocyclohept[b]indol-3-yl)pyridin-2(1H)-one hydrochloride]
Ki (human MCH-1 receptor; read-out: MCH-1 Ki): 9.8 nM | melting point: 209 to 214 °C
